Data on 6 compounds can be found in article PMC3958783, “Molybdenum Reduction to Molybdenum Blue in Serratia sp. Strain DRY5 Is Catalyzed by a Novel Molybdenum-Reducing Enzyme” (BioMed Research International, 2014).

In test [1] the test system is T1, Mo-reducing enzyme.
T1 construct: native protein purified from cytoplasmic fraction (Mono Q twice, Zorbax GF-250); monomer, 105 kDa by gel filtration, 100 kDa by SDS-PAGE
The test can be described thus: initial rates of Mo blue formation, absorbance at […] nm, nonlinear regression. Type of test: biochemical, Serratia sp. DRY5. Particulars: assay 50 mM citrate phosphate pH 5.0, room temperature, read-out: apparent Km.

Test [2] deals with T1, Mo-reducing enzyme. The test can be described thus: Mo blue formation assay, […] nm. The format is biochemical, Serratia sp. DRY5. To be noted: general reagent, assay with 12-MP and NADH; for IC50: read-out: Concentrations which decrease enzyme activity by 50%.

Read-outs that look alike come from different tables or passages of the source.

As for 12-MP, in the test on Mo-reducing enzyme [1] (5 mM NADH, electron acceptor), the Km stood at 3870 µM.
In the case of `OCCS` [2-Mercaptoethanol], on Mo-reducing enzyme [2] (thiol), the IC50 came to 5 mM.
Same read-out and setting: as for `OC(CS)C(O)CS` (stereo not drawn) [DTT], the figure is 10 mM.
As for `O=C(O)CN(CCN(CC(=O)O)CC(=O)O)CC(=O)O` [EDTA], the IC50 on Mo-reducing enzyme [2] (metal chelator) was determined as 0.1 mM.
`NC(=O)C1=CN([C@@H]2O[C@H](COP(=O)(O)OP(=O)(O)OC[C@H]3O[C@@H](n4cnc5c(N)ncnc54)[C@H](O)[C@@H]3O)[C@@H](O)[C@H]2O)C=CC1` [NADH]: in the test with Mo-reducing enzyme [1] (15 mM 12-MP, electron donor), the Km was determined as 790 µM.
Consider `CCCCCCCCCCCCOS(=O)(=O)O` [SDS], for which the “Concentrations which decrease enzyme activity by 50%” value at Mo-reducing enzyme [2] (denaturing detergent) was determined as 0.1%.

Broadly, the Km is the concentration of substrate that gives half-maximal velocity.
